Data: US9790169B2, “IDO inhibitors” (BRISTOL-MYERS SQUIBB COMPANY, priority 2015, dated 2017)
pIC50: −log10 of the molar value.

The compounds below were run against human IDO1 (Homo sapiens, UniProt P14902) (assay: Assessment of human IDO-1 inhibitory activity in Hela cells (Interferon-gamma stimulated HeLa cells, Ehrlich reagent, absorbance 490 nm)). Conditions: Hela Human IDO-1 cellular assay.
Format: cell-based
Set-up: endogenous in cells; host or cells: HeLa cells stimulated with interferon-gamma
Method in brief: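 HeLa cells pre-incubated with compound 1 h at 37 °C, then stimulated with human IFN-γ (10 ng/ml final) or murine IFN-γ (5 ng/ml final) for 18 h. Kynurenine read with Ehrlich reagent at 490 nm after TCA (3%) and 50 °C treatment; IC50 normalized to unstimulated (100%) and IFN-γ-only (0%) wells.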

Sequence of human IDO1 (P14902 whole entry): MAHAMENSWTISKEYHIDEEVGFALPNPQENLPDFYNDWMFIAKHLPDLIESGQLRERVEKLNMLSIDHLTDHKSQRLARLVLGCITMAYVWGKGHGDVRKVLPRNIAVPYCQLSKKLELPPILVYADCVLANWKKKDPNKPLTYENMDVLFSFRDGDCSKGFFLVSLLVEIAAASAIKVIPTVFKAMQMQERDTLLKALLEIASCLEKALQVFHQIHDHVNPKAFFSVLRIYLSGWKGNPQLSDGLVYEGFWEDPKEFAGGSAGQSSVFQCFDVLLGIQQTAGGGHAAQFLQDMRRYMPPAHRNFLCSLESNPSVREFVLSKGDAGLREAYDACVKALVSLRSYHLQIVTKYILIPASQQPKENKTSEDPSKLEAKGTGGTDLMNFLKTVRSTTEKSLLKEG

Structure (SMILES)	pIC50
CCC(CC(=O)O)c1ccc(N(C)C2CCOCC2)c(Nc2cnc(OC)nc2)c1 (single isomer, unassigned) [Example 871, 3-(3-((2-methoxy-pyrimidin-5-yl)amino)-4-(methyl(tetra-hydro-2H-pyran-4-yl)amino)phenyl) pentanoic acid]	< 7.30
COCC(CC(=O)O)c1ccc(N(C)C2CCOCC2)c(Nc2ccc(Cl)cc2)c1 (single isomer, unassigned) [Example 877, 3-(3-((4-chlorophenyl)amino)-4-(methyl(tetrahydro-2H-pyran-4-yl)amino)phenyl)-4-methoxybutanoic acid]	< 7.30
CCOc1ncc(Nc2cc(C(COC)CC(=O)O)ccc2N(C)C2CCOCC2)cn1 (single isomer, unassigned) [Example 878, 3-(3-((2-ethoxypyrimidin-5-yl)amino)-4-(methyl (tetrahydro-2H-pyran-4-yl)amino)phenyl)-4-methoxybutanoic acid]	< 7.30
COCC(CC(=O)O)c1ccc(N(C)C2CCOCC2)c(NC(=O)Nc2ccc(Cl)cc2F)c1 (single isomer, unassigned) [Example 879, 3-(3-(3-(4-Chloro-2-fluorophenyl)ureido)-4-(methyl(tetrahydro-2H-pyran-4-yl)amino)phenyl)-4-methoxybutanoic acid]	< 7.30
COCC(CC(=O)O)c1ccc(N(C)C2CCOCC2)c(Nc2ccc(C#N)cn2)c1 (single isomer, unassigned) [Example 881, 3-(3-((5-cyanopyridin-2-yl)amino)-4-(methyl (tetrahydro-2H-pyran-4-yl)amino)phenyl)-4-methoxybutanoic acid]	< 7.30
COCC(CC(=O)O)c1ccc(N(C)C2CCOCC2)c(NC(=O)Nc2ccc(Cl)cc2F)c1 (single isomer, unassigned) [Example 886, 3-(3-(3-(4-Chloro-2-fluorophenyl)ureido)-4-(methyl(tetrahydro-2H-pyran-4-yl)amino)phenyl)-4-methoxybutanoic acid]	< 7.30
CCc1ccc(Nc2cc(C(CC)CC(=O)O)ccc2N2CCOC[C@H]2C(C)C)cc1 (single isomer, unassigned) [Example 890]	> 7.30
COCC(CC(=O)O)c1ccc(N2CCOC[C@H]2C(C)C)c(Nc2ccc(C#N)cc2)c1 (single isomer, unassigned) [Example 909]	> 7.30
COCC(CC(=O)O)c1ccc(N2CCOC[C@H]2C(C)C)c(Nc2ccc(Cl)cc2)c1 (single isomer, unassigned) [Example 910]	> 7.30
COCC(CC(=O)O)c1ccc(N2CCOC[C@H]2C(C)C)c(NC(=O)Nc2ccc(C#N)cc2)c1 (single isomer, unassigned) [Example 911]	< 7.30
CCOc1ncc(Nc2cc(C(COC)CC(=O)O)ccc2N2CCOC[C@H]2C(C)C)cn1 (single isomer, unassigned) [Example 914]	< 7.30
CCN(c1c(F)cc(C(COC)CC(=O)O)cc1Nc1ccc(C#N)cc1)C1CCOCC1 (single isomer, unassigned) [Example 918, 3-(3-((4-Cyanophenyl)amino)-4-(ethyl(tetrahydro-2H-pyran-4-yl)amino)-5-fluorophenyl)-4-methoxybutanoic acid]	> 7.30
CCN(c1c(F)cc(C(COC)CC(=O)O)cc1NC(=O)Nc1ccc(Cl)cc1F)C1CCOCC1 (single isomer, unassigned) [Example 919, 3-(3-(3-(4-Chloro-2-fluorophenyl)ureido)-4-(ethyl(tetrahydro-2H-pyran-4-yl)amino)-5-fluorophenyl)-4-methoxybutanoic acid]	< 7.30
CCc1ccc(Nc2cc(C(COC)CC(=O)O)cc(F)c2N(CC(C)C)CC(C)C)cc1 (single isomer, unassigned) [Example 922, 3-(4-(diisobutylamino)-3-((4-ethylphenyl)amino)-5-fluorophenyl)-4-methoxybutanoic acid]	> 7.30
CCOc1ccc(Nc2cc(C(COC)CC(=O)O)cc(F)c2N(CC(C)C)CC(C)C)cc1 (single isomer, unassigned) [Example 923, 3-(4-(diisobutylamino)-3-((4-ethoxyphenyl)amino)-5-fluorophenyl)-4-methoxybutanoic acid]	> 7.30
COCC(CC(=O)O)c1cc(F)c(N(CC(C)C)CC(C)C)c(Nc2ccc3c(c2)OC(F)(F)O3)c1 (single isomer, unassigned) [Example 924, 3-(3-((2,2-difluorobenzo[d] [1,3]dioxol-5-yl)amino)-4-(diisobutylamino)-5-fluorophenyl)-4-methoxybutanoic acid]	> 7.30
COCC(CC(=O)O)c1cc(F)c(N(CC(C)C)CC(C)C)c(Nc2ccc3nc(C)sc3c2)c1 (single isomer, unassigned) [Example 925, 3-(4-(diisobutylamino)-3-fluoro-5-((2-methylbenzo [d]thiazol-6-yl)amino)phenyl)-4-methoxybutanoic acid]	> 7.30
COCC(CC(=O)O)c1ccc(NC2CCOCC2)c(Nc2ccc(C#N)cc2)c1 (single isomer, unassigned) [Example 928 E1, 3-(3-((4-Cyanophenyl)amino)-4-((tetrahydro-2H-pyran-4-yl)amino)phenyl)-4-methoxybutanoic acid]	< 7.30
COCC(CC(=O)O)c1ccc(N2CCOC[C@@H]2C(C)C)c(Nc2ccc(C#N)cc2)c1 (single isomer, unassigned) [Example 929]	> 7.30
COCC(CC(=O)O)c1ccc(N2CCOC[C@@H]2C(C)C)c(Nc2ccc(Cl)cc2)c1 (single isomer, unassigned) [Example 930]	> 7.30
CCOc1ncc(Nc2cc(C(COC)CC(=O)O)ccc2N2CCOC[C@@H]2C(C)C)cn1 (single isomer, unassigned) [Example 931]	< 7.30
COCC(CC(=O)O)c1ccc(N2CCOC[C@@H]2C(C)C)c(NC(=O)Nc2ccc(C#N)cc2)c1 (single isomer, unassigned) [Example 932]	< 7.30
COCC(CC(=O)O)c1ccc(N2CCOC[C@@H]2C(C)C)c(Nc2ccc(C#N)cc2)c1 (single isomer, unassigned) [Example 933]	< 7.30
COCC(CC(=O)O)c1ccc(N2CCOC[C@@H]2C(C)C)c(Nc2ccc(Cl)cc2)c1 (single isomer, unassigned) [Example 934]	< 7.30
CCOc1ncc(Nc2cc(C(CC)CC(=O)O)ccc2N(CC)C2CCN(Cc3ccccc3)CC2)cn1 (single isomer, unassigned) [Example 939, 3-(4-((1-Benzylpiperidin-4-yl)(ethyl)amino)-3-((2-ethoxypyrimidin-5-yl)amino)phenyl)pentanoic acid]	> 7.30

Further lines, results first:

pIC50	Structure (SMILES)
> 8.30	CCC(CC(=O)O)c1ccc(N(C)C2CCOCC2)c(Nc2ccc(C#N)cc2)c1 (single isomer, unassigned) [Example 870, 3-(3-((4-Cyanophenyl)amino)-4-(methyl(tetrahydro-2H-pyran-4-yl)amino)phenyl)pentanoic acid]
> 7.30	COCC(CC(=O)O)c1ccc(N(C)C2CCOCC2)c(Nc2ccc(C#N)cc2)c1 (single isomer, unassigned) [Example 873, 3-(3-((4-Cyanophenyl)amino)-4-(methyl(tetrahydro-2H-pyran-4-yl)amino)phenyl)-4-methoxybutanoic acid]
> 8.30	COCC(CC(=O)O)c1ccc(N(C)C2CCOCC2)c(Nc2ccc(C#N)cn2)c1 (single isomer, unassigned) [Example 874, 3-(3-((5-cyanopyridin-2-yl)amino)-4-(methyl (tetrahydro-2H-pyran-4-yl)amino)phenyl)-4-methoxybutanoic acid]
> 7.30	COCC(CC(=O)O)c1ccc(N(C)C2CCOCC2)c(Nc2ccc(C#N)c(F)c2)c1 (single isomer, unassigned) [Example 875, 3-(3-((4-cyano-3-fluorophenyl)amino)-4-(methyl(tetrahydro-2H-pyran-4-yl)amino)phenyl)-4-methoxybutanoic acid]
> 7.30	COCC(CC(=O)O)c1ccc(N(C)C2CCOCC2)c(Nc2ccc(C#N)cc2F)c1 (single isomer, unassigned) [Example 876, 3-(3-((4-cyano-2-fluorophenyl)amino)-4-(methyl(tetrahydro-2H-pyran-4-yl)amino)phenyl)-4-methoxybutanoic acid]
> 8.30	COCC(CC(=O)O)c1ccc(N(C)C2CCOCC2)c(Nc2ccc(Cl)cc2)c1 (single isomer, unassigned) [Example 884, 3-(3-((4-chlorophenyl)amino)-4-(methyl(tetrahydro-2H-pyran-4-yl)amino)phenyl)-4-methoxybutanoic acid]
> 8.30	CCC(CC(=O)O)c1ccc(N2CCOC[C@H]2C(C)C)c(Nc2ccc(C#N)cc2)c1 (single isomer, unassigned) [Example 887]
> 8.30	CCC(CC(=O)O)c1ccc(N2CCOC[C@H]2C(C)C)c(Nc2ccc(Cl)cc2)c1 (single isomer, unassigned) [Example 888]
> 8.30	CCC(CC(=O)O)c1ccc(N2CCOC[C@H]2C(C)C)c(Nc2ccc(F)cc2)c1 (single isomer, unassigned) [Example 889]
> 8.30	COCC(CC(=O)O)c1ccc(N2CCOC[C@H]2C(C)C)c(Nc2ccc(C#N)cc2)c1 (single isomer, unassigned) [Example 912]
> 8.30	COCC(CC(=O)O)c1ccc(N2CCOC[C@H]2C(C)C)c(Nc2ccc(Cl)cc2)c1 (single isomer, unassigned) [Example 913]
> 8.30	CCN(c1c(F)cc(C(COC)CC(=O)O)cc1Nc1ccc(C#N)cc1)C1CCOCC1 (single isomer, unassigned) [Example 916, 3-(3-((4-Cyanophenyl)amino)-4-(ethyl(tetrahydro-2H-pyran-4-yl)amino)-5-fluorophenyl)-4-methoxybutanoic acid]
> 8.30	COCC(CC(=O)O)c1cc(F)c(N(CC(C)C)CC(C)C)c(Nc2ccc(Cl)cc2)c1 (single isomer, unassigned) [Example 920, 3-(3-((4-Chlorophenyl)amino)-4-(diisobutylamino)-5-fluorophenyl)-4-methoxybutanoic acid]
